Test results published in ChEMBL document CHEMBL3991601, “The target landscape of clinical kinase drugs” (Science, 2017).
Activity calls are given as the source filed them.

How the values were obtained:
ADP/ATP translocase 3 = target: T1, ADP/ATP translocase 3 (Homo sapiens, UniProt P12236)
T1 sequence (P12236 whole entry): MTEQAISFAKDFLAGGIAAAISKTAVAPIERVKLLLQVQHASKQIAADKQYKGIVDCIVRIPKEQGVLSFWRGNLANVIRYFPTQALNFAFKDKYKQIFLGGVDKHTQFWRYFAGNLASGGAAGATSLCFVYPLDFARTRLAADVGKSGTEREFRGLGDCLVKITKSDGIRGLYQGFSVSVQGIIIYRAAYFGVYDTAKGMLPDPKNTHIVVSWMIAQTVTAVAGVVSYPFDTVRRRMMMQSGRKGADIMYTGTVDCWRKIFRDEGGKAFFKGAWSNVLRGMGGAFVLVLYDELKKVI

[1] = target: T2, Phosphatidylinositol 5-phosphate 4-kinase type-2 alpha (Homo sapiens, UniProt P48426)
T2 sequence (P48426 whole entry): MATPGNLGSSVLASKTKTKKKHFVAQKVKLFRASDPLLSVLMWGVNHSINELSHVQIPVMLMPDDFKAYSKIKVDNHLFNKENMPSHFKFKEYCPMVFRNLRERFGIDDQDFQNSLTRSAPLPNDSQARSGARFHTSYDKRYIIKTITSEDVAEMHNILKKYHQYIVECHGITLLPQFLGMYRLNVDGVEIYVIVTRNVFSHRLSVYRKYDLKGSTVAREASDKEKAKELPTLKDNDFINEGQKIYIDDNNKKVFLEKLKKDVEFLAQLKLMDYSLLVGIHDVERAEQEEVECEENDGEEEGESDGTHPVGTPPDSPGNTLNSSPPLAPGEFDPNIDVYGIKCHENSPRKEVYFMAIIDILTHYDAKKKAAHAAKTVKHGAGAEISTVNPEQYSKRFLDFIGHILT

[2] = target: Dual specificity testis-specific protein kinase 2 (Homo sapiens, UniProt Q96S53)
Sequence of Dual specificity testis-specific protein kinase 2 (Q96S53 whole entry): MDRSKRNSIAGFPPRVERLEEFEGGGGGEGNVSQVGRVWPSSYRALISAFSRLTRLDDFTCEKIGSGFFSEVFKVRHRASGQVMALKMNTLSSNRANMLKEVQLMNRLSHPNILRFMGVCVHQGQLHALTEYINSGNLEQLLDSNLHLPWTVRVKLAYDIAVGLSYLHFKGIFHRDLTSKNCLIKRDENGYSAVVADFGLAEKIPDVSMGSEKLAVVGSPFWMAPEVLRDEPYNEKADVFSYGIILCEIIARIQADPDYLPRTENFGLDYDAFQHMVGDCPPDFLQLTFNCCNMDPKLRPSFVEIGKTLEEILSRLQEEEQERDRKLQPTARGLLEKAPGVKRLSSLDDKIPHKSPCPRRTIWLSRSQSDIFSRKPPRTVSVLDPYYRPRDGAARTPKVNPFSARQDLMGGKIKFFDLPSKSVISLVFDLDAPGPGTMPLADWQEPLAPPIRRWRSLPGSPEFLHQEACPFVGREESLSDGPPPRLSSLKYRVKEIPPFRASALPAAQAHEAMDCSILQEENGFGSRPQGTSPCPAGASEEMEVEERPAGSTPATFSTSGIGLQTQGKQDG

[3] = target: Dual specificity protein kinase CLK4 (Homo sapiens, UniProt Q9HAZ1)
Sequence of Dual specificity protein kinase CLK4 (Q9HAZ1 whole entry): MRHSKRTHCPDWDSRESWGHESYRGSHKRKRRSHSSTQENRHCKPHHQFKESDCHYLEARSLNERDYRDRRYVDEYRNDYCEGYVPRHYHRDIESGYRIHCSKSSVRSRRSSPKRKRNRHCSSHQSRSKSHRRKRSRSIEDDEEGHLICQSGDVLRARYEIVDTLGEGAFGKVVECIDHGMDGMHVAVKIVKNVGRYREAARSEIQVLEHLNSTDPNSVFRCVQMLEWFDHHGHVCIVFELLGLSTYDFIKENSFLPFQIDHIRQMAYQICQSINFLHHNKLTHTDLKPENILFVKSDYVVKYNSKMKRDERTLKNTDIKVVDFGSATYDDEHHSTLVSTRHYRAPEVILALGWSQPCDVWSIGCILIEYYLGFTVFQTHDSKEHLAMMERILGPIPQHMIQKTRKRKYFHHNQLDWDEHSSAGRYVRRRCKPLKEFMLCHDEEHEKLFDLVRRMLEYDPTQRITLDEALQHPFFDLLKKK

[4] = target: T3, Interleukin-1 receptor-associated kinase 4 (Homo sapiens, UniProt Q9NWZ3)
T3 sequence (Q9NWZ3 whole entry): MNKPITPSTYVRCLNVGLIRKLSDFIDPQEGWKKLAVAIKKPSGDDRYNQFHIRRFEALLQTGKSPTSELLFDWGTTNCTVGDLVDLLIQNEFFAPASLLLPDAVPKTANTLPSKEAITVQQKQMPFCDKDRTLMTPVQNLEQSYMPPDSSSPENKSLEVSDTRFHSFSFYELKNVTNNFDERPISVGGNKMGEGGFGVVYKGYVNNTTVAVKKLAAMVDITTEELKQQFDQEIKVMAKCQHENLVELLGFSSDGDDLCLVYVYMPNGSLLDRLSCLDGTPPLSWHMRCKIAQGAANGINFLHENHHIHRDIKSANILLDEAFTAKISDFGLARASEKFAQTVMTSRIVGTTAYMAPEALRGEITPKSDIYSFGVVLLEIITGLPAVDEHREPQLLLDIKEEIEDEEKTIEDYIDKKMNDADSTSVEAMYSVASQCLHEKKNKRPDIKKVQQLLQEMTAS

[5] = target: T4, Protein kinase C zeta type (Homo sapiens, UniProt Q05513)
T4 sequence (Q05513 whole entry): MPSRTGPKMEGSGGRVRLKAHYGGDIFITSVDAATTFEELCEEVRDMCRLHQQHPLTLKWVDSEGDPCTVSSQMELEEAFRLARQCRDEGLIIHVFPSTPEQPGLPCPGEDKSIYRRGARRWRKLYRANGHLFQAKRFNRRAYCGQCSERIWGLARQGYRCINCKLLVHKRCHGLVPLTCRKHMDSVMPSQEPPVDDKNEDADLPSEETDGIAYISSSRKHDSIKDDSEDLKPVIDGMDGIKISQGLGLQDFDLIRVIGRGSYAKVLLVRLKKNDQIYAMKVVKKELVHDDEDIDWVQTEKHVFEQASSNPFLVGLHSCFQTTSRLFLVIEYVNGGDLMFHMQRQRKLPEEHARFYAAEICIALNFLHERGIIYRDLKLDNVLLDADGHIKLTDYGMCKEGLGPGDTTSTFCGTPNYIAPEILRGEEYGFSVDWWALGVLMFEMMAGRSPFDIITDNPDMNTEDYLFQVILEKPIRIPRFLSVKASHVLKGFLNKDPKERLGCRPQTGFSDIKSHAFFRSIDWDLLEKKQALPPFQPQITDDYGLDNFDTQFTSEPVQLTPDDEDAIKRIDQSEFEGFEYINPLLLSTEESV

Measured: Kd
Also: in the data inactive means no Kd found up to 30 µM.

COc1cc2nccc(Oc3ccc(NC(=O)Nc4cc(C)on4)c(Cl)c3)c2cc1OC [TIVOZANIB]
inactive: ADP/ATP translocase 3 > 30 µM | [1] > 30 µM | [2] > 30 µM | [3] > 30 µM | [4] > 30 µM | [5] > 30 µM

CC(=O)Nc1cccc(-n2c(=O)n(C3CC3)c(=O)c3c(Nc4ccc(I)cc4F)n(C)c(=O)c(C)c32)c1 [TRAMETINIB]
inactive: ADP/ATP translocase 3 > 30 µM | [1] > 30 µM | [2] > 30 µM | [3] > 30 µM | [4] > 30 µM | [5] > 30 µM

COCCNCc1ccc(-c2cc3nccc(Oc4ccc(NC(=S)NC(=O)Cc5ccc(F)cc5)cc4F)c3s2)nc1 [GLESATINIB]
inactive: ADP/ATP translocase 3 > 30 µM | [1] > 30 µM | [2] > 30 µM | [3] > 30 µM | [4] > 30 µM | [5] > 30 µM

Cn1cc(-c2ccc3nnc(C(F)(F)c4ccc5ncccc5c4)n3n2)cn1 [JNJ-38877605]
inactive: ADP/ATP translocase 3 > 30 µM | [1] > 30 µM | [2] > 30 µM | [3] > 30 µM | [4] > 30 µM | [5] > 30 µM

C[C@@H]1CN(Cc2ccc(F)cc2)[C@@H](C)CN1C(=O)c1cc2c(C(=O)C(=O)N(C)C)cn(C)c2cc1Cl [TALMAPIMOD]
inactive: ADP/ATP translocase 3 > 30 µM | [1] > 30 µM | [2] > 30 µM | [3] > 30 µM | [4] > 30 µM | [5] > 30 µM
